Experimental data as given in paper PMC8409973, “Synthesis, antiproliferative and antitrypanosomal activities, and DNA binding of novel 6-amidino-2-arylbenzothiazoles” (Journal of Enzyme Inhibition and Medicinal Chemistry, 2021).
Where a name gives a salt, the structure may show the parent alone.

How the values were obtained:
[1] = tested on: HeLa (cervical carcinoma); assay: Proliferation assay (MTT, 72 h) on HeLa; assay type: cell-based; conditions: Homo sapiens
Experimental: (§1) Human cell lines SW620 (colorectal adenocarcinoma, metastatic), MCF-7 (human breast adenocarcinoma), CFPAC-1 (pancreatic adenocarcinoma), HeLa (cervical carcinoma), and HFF-1 (human foreskin fibroblasts) were obtained from the American Type Culture Collection (ATCC). Cells were cultured in a humidified atmosphere at 37 °C with 5% CO2. As a growth medium, Dulbecco’s modified Eagle medium (DMEM) was used with the addition of foetal bovine serum (10%), L-glutamine (2 mM), and antibiotics: streptomycin ([…]) and penicillin (100 U/ml).
(§2) Cells were seeded onto 96-well microtiter plates at a seeding density of 3000 cells/well for carcinoma cell lines, and 5000 cells/well for normal human fibroblasts. The next day, cells were treated with test agents at five different concentrations (0.01–100 µM) and further incubated for 72 h. […] 5-Fluorouracil (5-FU, 0.384 M fluorouracilum, Pliva 500 mg/10 ml) dissolved in physiological solution was used as a positive control. Following 72 h incubation, the MTT assay was performed and measured absorbances were transformed into a percentage of cell growth as described previously. Results were obtained from three independent experiments. IC50 values were calculated using linear regression analysis (FORECAST option taking into account the concentration range of two experimental points above and below IC50).

[2] = tested on: MCF-7 (human breast adenocarcinoma); assay: Proliferation assay (MTT, 72 h) on MCF-7; assay type: cell-based; conditions: MCF7, MCF-7, 72 h
Experimental: as §1, §2

[3] = tested on: L6 cells (a rat myoblast line); assay: L6 cell proliferation (cytotoxicity, resazurin); assay type: cell-based; conditions: 144 h; rat myoblast L6, 6 days
[4] = tested on: CFPAC-1 (pancreatic adenocarcinoma); assay: Proliferation assay (MTT, 72 h) on CFPAC-1; assay type: cell-based; conditions: Homo sapiens, CFPAC-1, 72 h
Experimental: as §1, §2

[5] = tested on: HFF-1 (human foreskin fibroblasts); assay: Proliferation assay (MTT, 72 h) on normal fibroblasts HFF-1; assay type: cell-based; conditions: HFF-1 normal fibroblasts
Experimental: as §1, §2

[6] = tested on: Bloodstream form T. b. brucei (strain 221); assay: Antitrypanosomal screening (resazurin); assay type: cell-based; conditions: Trypanosoma brucei; for IC90: concentration that inhibited growth by 90%, mean ± SEM; for IC50: mean of triplicate ± SEM
Experimental: Resazurin (20 μl at 0.125 mg ml^−1) was added after 48 h, the plates were incubated for a further 16 h, and then read in a Spectramax plate reader, and data analysed using GraphPad Prism. Each drug was tested in triplicate.

[7] = tested on: SW620 (colorectal adenocarcinoma, metastatic); assay: Proliferation assay (MTT, 72 h) on SW620; assay type: cell-based; conditions: Homo sapiens, SW-620, SW620, 72 h
Experimental: as §1, §2

| Compound | melting point [°C] | IC50 [1] [nM] | IC50 [2] [nM] | IC50 [3] [nM] | IC50 [4] [nM] | IC50 [5] [nM] | IC90 [6] [nM] | IC50 [6] [nM] | IC50 [7] [nM] |
| --- | --- | --- | --- | --- | --- | --- | --- | --- | --- |
| N=C(N)c1ccc2nc(-c3ccc(OCc4cn(-c5ccccc5)nn4)cc3)sc2c1 (as salt: methanesulfonate) [10a] | 272 to 275 |  |  |  |  |  |  |  |  |
| N=C(N)c1ccc2nc(-c3ccc(OCc4cn(-c5ccc(Cl)cc5)nn4)cc3)sc2c1 (as salt: methanesulfonate) [10b] | 276 to 279 |  |  |  |  |  |  |  |  |
| COc1ccc(-n2cc(COc3ccc(-c4nc5ccc(C(=N)N)cc5s4)cc3)nn2)cc1 (as salt: methanesulfonate) [10c] | 265 to 270 |  |  |  |  |  |  |  |  |
| N=C(N)c1ccc2nc(-c3ccc(OCc4cn(Cc5ccccc5)nn4)cc3)sc2c1 (as salt: methanesulfonate) [10d] | 253 to 257 |  |  |  |  |  |  |  |  |
| N=C(N)c1ccc2nc(-c3cn(-c4ccccc4)nn3)sc2c1 (as salt: methanesulfonate) [13a, 6-Amidinium-2-(1-phenyl-1H-1,2,3-triazole-4-yl)benzothiazole methanesulfonate] | 289 to 293 |  |  |  |  |  |  |  |  |
| N=C(N)c1ccc2nc(-c3cn(-c4ccc(Cl)cc4)nn3)sc2c1 (as salt: methanesulfonate) [13b, 6-Amidinium-2-[1-(4-chlorophenyl)-1H-1,2,3-triazole-4-yl]benzothiazole methanesulfonate] | > 300 |  |  |  |  |  |  |  |  |
| COc1ccc(-n2cc(-c3nc4ccc(C(=N)N)cc4s3)nn2)cc1 (as salt: methanesulfonate) [13c, 6-Amidinium-2-[1-(4-methoxyphenyl)-1H-1,2,3-triazole-4-yl]benzothiazole methanesulfonate] | > 300 |  |  |  |  |  |  |  |  |
| N=C(N)c1ccc2nc(-c3cn(Cc4ccccc4)nn3)sc2c1 (as salt: methanesulfonate) [13d, 6-Amidinium-2-(1-benzyl-1H-1,2,3-triazole-4-yl)benzothiazole methanesulfonate] | 262 to 267 |  |  |  |  |  |  |  |  |
| N=C(N)c1ccc2nc(-c3ccc(OCc4cn(-c5ccccc5)nn4)cc3)sc2c1 [10a] |  | 2890 ± 110 | 3390 ± 1170 | < 2000 | 3340 ± 190 | 170 ± 40 | 1450 ± 110 | 1170 ± 100 | 2890 ± 30 |
| COc1ccc(-n2cc(COc3ccc(-c4nc5ccc(C(=N)N)cc5s4)cc3)nn2)cc1 [10c] |  | 2870 ± 1240 | 3660 ± 1490 | < 2000 | 3450 ± 290 | 310 ± 80 | 1260 ± 20 | 1000 ± 70 | 3860 ± 290 |
| N=C(N)c1ccc2nc(-c3ccc(OCc4cn(Cc5ccccc5)nn4)cc3)sc2c1 [10d] |  | 1770 ± 450 | 3020 ± 980 |  | 5150 ± 230 | 760 ± 180 |  |  | 1180 ± 180 |
| COc1ccc(-n2cc(COc3nc4ccc(C5=NCCN5)cc4s3)nn2)cc1.CS(=O)(=O)O [11c, 6-(4,5-Dihydro-1H-imidazol-3-ium-2-yl)-2-{[1-(4-methoxyphenyl)-1H-1,2,3-triazol-4-yl]methoxy}benzothiazole methanesulfonate] | 253 to 257 | 2530 ± 10 | 860 ± 970 | < 2000 | 2060 ± 700 | 240 ± 130 | 230 ± 50 | 190 ± 40 | 500 ± 160 |
